Results: the NIST ThermoML archive (doi:10.1021/acs.jced.8b00554)

Legend:
[1] = Liquid, Vibrating tube method
[2] = refractive index (Na D-line) (dimensionless); conditions: 298.15 K; 101.33 kPa; Liquid; Standard Abbe refractometry

CCCCCCCCCC [decane]
[1]
Conditions	mass density [kg/m3]
313.15 K, 100 kPa	714.75
313.15 K, 1010 kPa	715.53
313.15 K, 2000 kPa	716.4
313.15 K, 3000 kPa	717.27
313.15 K, 4000 kPa	718.14
313.15 K, 5000 kPa	718.99
313.15 K, 6010 kPa	719.78
313.15 K, 7010 kPa	720.66
313.15 K, 7990 kPa	721.48
313.15 K, 9000 kPa	722.28
313.15 K, 10000 kPa	723.08
313.15 K, 11000 kPa	723.91
313.15 K, 12000 kPa	724.66
313.15 K, 13000 kPa	725.42
313.15 K, 14010 kPa	726.18
313.15 K, 15010 kPa	726.93
313.15 K, 16000 kPa	727.61
313.15 K, 17010 kPa	728.38
313.15 K, 18010 kPa	729.1
313.15 K, 19000 kPa	729.81
313.15 K, 20000 kPa	730.51
323.15 K, 100 kPa	706.95
323.15 K, 1000 kPa	707.77
323.15 K, 1990 kPa	708.72
323.15 K, 3000 kPa	709.63
323.15 K, 4000 kPa	710.55
323.15 K, 5010 kPa	711.46
323.15 K, 5990 kPa	712.35
323.15 K, 7000 kPa	713.23
323.15 K, 8010 kPa	714.1
323.15 K, 8990 kPa	714.96
323.15 K, 10010 kPa	715.8
323.15 K, 11000 kPa	716.66
323.15 K, 12010 kPa	717.49
323.15 K, 13010 kPa	718.29
323.15 K, 14000 kPa	719.09
323.15 K, 15010 kPa	719.88
323.15 K, 16010 kPa	720.66
323.15 K, 17010 kPa	721.43
323.15 K, 17990 kPa	722.2
323.15 K, 18990 kPa	722.94
323.15 K, 20010 kPa	723.68
333.15 K, 100 kPa	699.17
333.15 K, 1000 kPa	700.04
333.15 K, 2010 kPa	701.02
333.15 K, 3000 kPa	702.01
333.15 K, 4010 kPa	702.98
333.15 K, 4990 kPa	703.93
333.15 K, 5990 kPa	704.88
333.15 K, 7000 kPa	705.81
333.15 K, 8000 kPa	706.73
333.15 K, 9010 kPa	707.63
333.15 K, 9990 kPa	708.53
333.15 K, 11000 kPa	709.45
333.15 K, 12000 kPa	710.31
333.15 K, 13010 kPa	711.16
333.15 K, 14000 kPa	712.01
333.15 K, 15000 kPa	712.85
333.15 K, 16010 kPa	713.67
333.15 K, 16990 kPa	714.48
333.15 K, 18000 kPa	715.29
333.15 K, 18990 kPa	716.08
333.15 K, 20000 kPa	716.87
343.15 K, 100 kPa	691.44
343.15 K, 1010 kPa	692.33
343.15 K, 2010 kPa	693.38
343.15 K, 2990 kPa	694.42
343.15 K, 4010 kPa	695.45
343.15 K, 4990 kPa	696.46
343.15 K, 6000 kPa	697.46
343.15 K, 7000 kPa	698.44
343.15 K, 8010 kPa	699.41
343.15 K, 8990 kPa	700.37
343.15 K, 10010 kPa	701.31
343.15 K, 11010 kPa	702.25
343.15 K, 12010 kPa	703.17
343.15 K, 13000 kPa	704.08
343.15 K, 14010 kPa	704.97
343.15 K, 15000 kPa	705.86
343.15 K, 16000 kPa	706.73
343.15 K, 17010 kPa	707.59
343.15 K, 18010 kPa	708.44
343.15 K, 18990 kPa	709.28
343.15 K, 19990 kPa	710.1
353.15 K, 100 kPa	683.75
353.15 K, 1010 kPa	684.69
353.15 K, 2000 kPa	685.79
353.15 K, 3010 kPa	686.88
353.15 K, 4010 kPa	687.96
353.15 K, 5010 kPa	689.03
353.15 K, 5990 kPa	690.08
353.15 K, 7000 kPa	691.11
353.15 K, 8000 kPa	692.13
353.15 K, 9000 kPa	693.13
353.15 K, 10000 kPa	694.12
353.15 K, 11010 kPa	695.12
353.15 K, 12000 kPa	696.08
353.15 K, 13000 kPa	697.04
353.15 K, 13990 kPa	697.98
353.15 K, 15000 kPa	698.91
353.15 K, 16000 kPa	699.82
353.15 K, 16990 kPa	700.72
353.15 K, 18010 kPa	701.62
353.15 K, 19000 kPa	702.5
353.15 K, 20000 kPa	703.37
363.15 K, 100 kPa	676.12
363.15 K, 990 kPa	677.1
363.15 K, 2010 kPa	678.26
363.15 K, 3000 kPa	679.41
363.15 K, 3990 kPa	680.54
363.15 K, 5010 kPa	681.66
363.15 K, 5990 kPa	682.76
363.15 K, 7000 kPa	683.84
363.15 K, 8010 kPa	684.91
363.15 K, 9010 kPa	685.97
363.15 K, 10010 kPa	687
363.15 K, 11000 kPa	688.04
363.15 K, 12010 kPa	689.05
363.15 K, 13010 kPa	690.06
363.15 K, 14000 kPa	691.04
363.15 K, 15010 kPa	692.02
363.15 K, 15990 kPa	692.98
363.15 K, 17000 kPa	693.93
363.15 K, 17990 kPa	694.86
363.15 K, 19000 kPa	695.79
363.15 K, 20000 kPa	696.7

Conditions	refractive index
[2]	1.4091
